Tests used:
HIV-1 WEJO(SI) = test: antiviral assay in PBL (p24), clinical isolate WEJO; format: cell-based; details: Human immunodeficiency virus 1, cell-free p24
Method: (§1) Initial anti-HIV screening was performed with CEM-SS cells and HIV-1RFusing the XTT cytoprotection assay as previously described (Weislow et al., J. National Cancer Inst. 81: 577-586, (1989)). HIV-1 isolates included common laboratory stains (RF, IIIB and MN), as well as a panel of HIV-1 clinical isolates (Cushman et al., J. Med. Chem. 37: 3040-3050, (1994)). The pyridone-resistant HIV-1A17 isolate (Nunberg et al., J. Virol., 65: 4887-4892 (1991)) was obtained from Emilio Emini at Merck Sharpe and Dohme Laboratories. Phytohemagglutinin-stimulated human peripheral blood lymphocytes (PBLs) and fresh monocyte-macrophage (Mono/MF) cultures were prepared and utilized in antiviral assays as previously described (Rice et al., Proc. Nat'l. Academy Science, USA 90: 9721-9724, (1993)); (Cushman et al., J. Med. Chem. 37: 3040-3050, (1994)). EC50 values for these cultures indicate the drug concentration that provided a 50% reduction in viral p24 production. […] The compounds can be synthesized according to the teachings of Singh et al., Sulfur Letters 8: 107-114, (1988). The 4,5-cis-dihydroxy(1,1-dioxy-1,2,-dithiohexane) compound (NSC 624151) has been abbreviated as 624151 for convenience. […]

HIV-1 Ba-L = test: antiviral assay in Mo/M.PHI. (p24), Ba-L; format: cell-based; details: Human immunodeficiency virus 1, BAL, cell-free p24
Method: as §1

HIV-1 Clade A = test: XTT cytopathicity assay, HIV-1 clade; format: cell-based; details: CEM-SS
Method: (§2) Initial anti-HIV screening was performed with CEM-SS cells and HIV-1RFusing the XTT cytoprotection assay as previously described (Weislow et al., J. National Cancer Inst. 81: 577-586, (1989)). HIV-1 isolates included common laboratory stains (RF, IIIB and MN), as well as a panel of HIV-1 clinical isolates (Cushman et al., J. Med. Chem. 37: 3040-3050, (1994)). The pyridone-resistant HIV-1A17 isolate (Nunberg et al., J. Virol., 65: 4887-4892 (1991)) was obtained from Emilio Emini at Merck Sharpe and Dohme Laboratories. Phytohemagglutinin-stimulated human peripheral blood lymphocytes (PBLs) and fresh monocyte-macrophage (Mono/MF) cultures were prepared and utilized in antiviral assays as previously described (Rice et al., Proc. Nat'l. Academy Science, USA 90: 9721-9724, (1993)); (Cushman et al., J. Med. Chem. 37: 3040-3050, (1994)). EC50 values for these cultures indicate the drug concentration that provided a 50% reduction in viral p24 production. […] The compounds can be synthesized according to the teachings of Singh et al., Sulfur Letters 8: 107-114, (1988). The 4,5-cis-dihydroxy(1,1-dioxy-1,2,-dithiohexane) compound (NSC 624151) has been abbreviated as 624151 for convenience. MT-2, MT-4, U1, HeLa-CD4-LTR-β-gal and 174xCEM cells were obtained from the AIDS Research and Reference Program (National Institute of Allergy and Infectious Disease, National Institutes of Health, Bethesda, Md. USA), as were the HIV-2MS and the AZT-resistant HIV-1G910-6 isolates.
(§3) ^a Anti-HIV studies utilizing lymphocytederived cell lines were
(§4) performed using the XTT cytopathicity assay, while antiviral assays

HIV-1 Clade B = test: XTT cytopathicity assay, HIV-1 clade; format: cell-based; details: CEM-SS
Method: as §2, §3, §4

HIV-1 Clade C = test: XTT cytopathicity assay, HIV-1 clade; format: cell-based; details: CEM-SS
Method: as §2, §3, §4

HIV-1 Clade D = test: XTT cytopathicity assay, HIV-1 clade; format: cell-based; details: CEM-SS
Method: as §2, §3, §4

HIV-1 Clade F = test: XTT cytopathicity assay, HIV-1 clade; format: cell-based; details: CEM-SS
Method: as §2, §3, §4

gp120-CD4 = target: T1, gp120-CD4 (UniProt P01730+P03375); test: gp120-CD4 binding, antigen capture ELISA; parameters: species or system HIV-1
T1 construct: purchased
Method: Binding of HIV-1RF to PBLs was measured by a p24-based assay (Rice, et al., Proc. Nat'l. Academy of Science USA 90: 9721-9724, (1993)). Briefly, 5×10^5 PBLs were incubated with a concentrated stock of virus for 30 min. at 37° C. in the absence or presence of various concentrations of 624151, the unbound virus was washed away, and the cell-associated virus was solubilized in 1% Triton X-100, 1% BSA and analyzed by the p24 antigen capture assay as previously described. The binding of gp120to CD4 was analyzed using an antigen capture ELISA. All steps of the assay were carried out according to the manufacturer's protocols.
^.dagger. Attachment of HIV1 to fresh human PBLs, binding of gp120 to
CD4, and the effects of compounds on HIV1 RT and protease were quantitate

HIV-1 p66-p51 RT = target: T2, HIV-1 p66-p51 RT (Human immunodeficiency virus type 1 group M subtype B, UniProt P04585); test: reverse transcriptase activity assay; format: biochemical; details: for inhibition of HIV-1 RT: in words
T2 construct: the purified HIV-1 p66-p51 RT enzyme
Method: The effects of 624151 on the in vitro activity of purified RT was determined by measurement of incorporation of [^3 H]TTP onto the poly(rA):oligo(dT)(rAdT) or poly(rC):oligo(dG)(rCdG) homopolymer template/primer systems. Samples (5 μL) were blotted onto DE81 paper, washed with 5% dibasic sodium phosphate as previously described (Buckheit et al., Antiviral Res. 21:247, (1993)), and then quantitated on a Packard Matrix 9600 dual beam counter. 3'-Azido-3'-deoxythymidine-5 '-triphosphateand UC38 (NSC 629243) served as positive controls for inhibition of RT. HIV-1 protease activity was quantitated by a reversed phase HPLC assay utilizing the […]Amide substrate (Multiple Peptide Systems, San Diego, Calif.) as previously described in Rice et al. (Proc. Nat'l. Academy of Science USA 9: 9721-9724, (1993)).

## O=S1(=O)C[C@H](O)[C@H](O)CS1 (relative stereo) [NSC 624151, cis-1,1-dioxo[1,2]dithiane-4,5-diol]
HIV-1 WEJO(SI)
  EC50: 7.59 µM
HIV-1 Ba-L
  EC50: 6.2 µM
HIV-1 Clade A
  EC50: 22 µM
HIV-1 Clade B
  EC50: 5.5 µM
HIV-1 Clade C
  EC50: 2.9 µM
HIV-1 Clade D
  EC50: 20 µM
HIV-1 Clade F
  EC50: 69 µM
gp120-CD4; in words
  inhibition of gp120-CD4 interaction: did not inhibit
gp120-CD4; read-out: gp120-CD4 ID50
  IC50: > 100 µM
HIV-1 p66-p51 RT; rAdT template/primer
  inhibition of HIV-1 RT: not inhibited
HIV-1 p66-p51 RT; rAdT, read-out: RT Activity rAdT ID50
  IC50: > 100 µM
HIV-1 p66-p51 RT; rCdG template/primer
  inhibition of HIV-1 RT: not inhibited

Reference: patent US6046228A, “Anti-viral pharmaceutical compositions containing saturated 1,2-dithiaheterocyclic compounds and uses thereof” (priority 1999, dated 2000)
